Laboratory results published in patent US9351492B2, “Anti-biofilm compositions and methods for using” (priority 2010, dated 2016).

Assays:
Staphylococcus aureus [1] = format: cell-based; conditions: for Biofilm Formation MBIC50 / Biofilm Formation MBIC90: doses 25-2000 μM
Procedure: (§1) For all assays, overnight cultures grown in the appropriate medium were used to inoculate fresh medium at an initial cell density of 5×10^5 colony-forming units (CFU) per ml. Cell density was confirmed by colony count of aliquots taken immediately following inoculation of the test strain.
Biofilm formation was assessed using a microtiter plate assay as previously described (Beenken et al., 2003, Infection and Immunity 71:4206-11) except that 2-fold serial dilutions (0.0125-0.4 mg/ml, 0.0125-0.4% excipient in solution) of 220D-F2 were included in the BM. Controls for each experiment were the wild-type strain and its isogenic sarA mutant assayed in the absence of 220D-F2. The minimum biofilm inhibiting concentration (MBIC) was defined as the lowest concentration at which 220D-F2 inhibited biofilm formation to a level ≧90% (for MBIC90) or ≧50% (for MBIC50) than that observed with the parent strain in the absence of 220D-F2. […]
(§2) Ten commercially available phytochemical constituents reported in the literature to have been isolated from R. ulmifolius (Table 4) were purchased and examined for their prophylactic efficacy in the prevention of biofilm formation using a static microtiter plate biofilm assay. Ferulic acid, kaempferol, ursolic acid, quercetin dehydrate, caffeic acid, ellagic acid, and oleanolic acid were purchased from MP BioMedicals (Solon, Ohio, USA); quercetin-3-O-glucuronide and tiliroside from Chromadex (Irvine, Calif., USA); and gallic acid from Acros Organics (NJ, USA). Compounds were tested for growth and biofilm inhibitory activity at doses ranging from 25-2000 μM. To determine the minimum inhibitory concentration (MIC) for each fraction, strains of S. aureus were grown in 37° C. in cation adjusted Muller-Hinton broth (CAMHB). MIC and MBC were determined following Clinical and Laboratory Standards Institute […] broth microdilution guidelines. Briefly, strains were inoculated into 0.1 ml CAMBH containing varying concentrations of the compound. For MIC, optical density (OD600) was assessed immediately after inoculation and again after 18 hours using Biotek Synergy II microplate reader. The MIC was defined as the lowest concentration that inhibited growth to a level greater than or equal to 90% (for MIC90) or greater than or equal to 50% (for MIC50) by comparison to untreated cultures.

Staphylococcus aureus [2] = test: MIC, CLSI broth microdilution (growth inhibition); format: cell-based; conditions: doses 25-2000 μM
Procedure: as §1
Briefly, test strains were inoculated into 0.1 ml CAMHB containing 220D-F2 at concentrations ranging from 0.138-4 mg/ml (0.138-4% excipient in solution). For the MIC, optical density (OD600) was assessed immediately after inoculation and again after 18 hrs using a Biotek Synergy II microplate reader. Corrections for extract color, which can alter the OD output, were done as previously described (Quave et al., 2008, supra). […] The MBC was determined by taking colony counts of aliquots taken from each well after 24 hrs and it was defined as the lowest concentration at which the initial density of viable cells was reduced by ≧90% (for MBC90) or ≧50% (for MBC50) by comparison to the untreated control. […] For these experiments, 10 ml cultures were grown at 37° C. in 25 ml Erlenmeyer flasks in BM with constant shaking (200 rpm).
as §2

Staphylococcus aureus [3] = conditions: Durig et al. 2010; cited from earlier work
UAMS-1 = test: in vitro catheter assay, established biofilm; format: cell-based, Staphylococcus aureus; conditions: catheters colonized without extract; 220D-F2 0.2 mg/ml, daptomycin 10 μg/ml (10× breakpoint MIC)
Procedure: UAMS-1 was grown on 1 cm catheter segments as previously described (Weiss et al., 2009b, Antimicrobial Agents and Chemotherapy 53:2475-2482). After 24 hrs, the BM medium was replaced with BM medium containing 220D-F2 (0.2 mg/ml) and/or daptomycin. […] The medium was replaced in its entirety at 24 hr intervals for 7 days. The therapeutic response of UAMS-1 to daptomycin in the presence of 220D-F2 was assessed by comparison to UAMS-929 grown in the absence of 220D-F2 but exposed to daptomycin as previously described (Weiss et al., 2009a, 2009b, supra). […] After each 24 h interval, catheters were removed from each treatment group and rinsed with PBS before removing bacteria for plate counts as previously described (Weiss et al., 2009a, 2009b, supra).
This assay was also used to assess the prophylactic activity of 220D-F2. In this case, the test compounds were added to the BM at the time of inoculation rather than after a 24 hr colonization period. After 24 hr incubation in the presence of 220D-F2, the catheters were processed for plate counts as described above.
Catheters were colonized with UAMS-1 in the absence of any extract. […] The antibiotics tested were daptomycin, clindamycin, vancomycin, and oxacillin.

Molecule: Oleanolic Acid
- Biofilm Formation MBIC50 (Staphylococcus aureus [1]): 190 ± 26 µM
- Biofilm Formation MBIC90 (Staphylococcus aureus [1]): 940 ± 35 µM
- Growth MBIC50 (Staphylococcus aureus [2]): 1077 ± 15 µM
- Growth MBIC90 (Staphylococcus aureus [2]): 1613 ± 31 µM

Molecule: O=c1oc2c(O)c(O)cc3c(=O)oc4c(O)c(O)cc1c4c23 [Ellagic Acid]
- anti-biofilm activity at doses well below any growth inhibitory effects (Staphylococcus aureus [1]; among 10 phytochemicals): meaningful anti-biofilm activity
- Biofilm Formation MBIC50 (Staphylococcus aureus [1]): 38 ± 13 µM
- Biofilm Formation MBIC90 (Staphylococcus aureus [1]): 763 ± 32 µM
- biofilm inhibition of S. aureus, previous studies (Staphylococcus aureus [3]): not an effective biofilm inhibitor
- Growth MBIC50 (Staphylococcus aureus [2]): >2000 µM
- Growth MBIC90 (Staphylococcus aureus [2]): >2000 µM

Molecule: O=C(O)/C=C/c1ccc(O)c(O)c1 [Caffeic Acid]
- Biofilm Formation MBIC50 (Staphylococcus aureus [1]): >2000 µM
- Biofilm Formation MBIC90 (Staphylococcus aureus [1]): >2000 µM
- Growth MBIC50 (Staphylococcus aureus [2]): >2000 µM
- Growth MBIC90 (Staphylococcus aureus [2]): >2000 µM

Molecule: CCCCCCCCCC(=O)N[C@@H](Cc1c[nH]c2ccccc12)C(=O)N[C@H](CC(N)=O)C(=O)N[C@@H](CC(=O)O)C(=O)N[C@@H]1C(=O)NCC(=O)N[C@@H](CCCN)C(=O)N[C@@H](CC(=O)O)C(=O)N[C@H](C)C(=O)N[C@@H](CC(=O)O)C(=O)NCC(=O)N[C@H](CO)C(=O)N[C@@H]([C@H](C)CC(=O)O)C(=O)N[C@@H](CC(=O)c2ccccc2N)C(=O)O[C@@H]1C [daptomycin]
- average colony counts at day 7 (UAMS-1): 1.01×10^7 CFU/catheter

Molecule: Ursolic Acid
- Biofilm Formation MBIC50 (Staphylococcus aureus [1]): 207 ± 32 µM
- Biofilm Formation MBIC90 (Staphylococcus aureus [1]): 397 ± 6 µM
- Growth MBIC50 (Staphylococcus aureus [2]): 640 ± 46 µM
- Growth MBIC90 (Staphylococcus aureus [2]): 763 ± 32 µM

Molecule: O=c1c(O)c(-c2ccc(O)c(O)c2)oc2cc(O)cc(O)c12 [Quercetin Dihydrate]
- Biofilm Formation MBIC50 (Staphylococcus aureus [1]): 543 ± 21 µM
- Biofilm Formation MBIC90 (Staphylococcus aureus [1]): 1987 ± 21 µM
- Growth MBIC50 (Staphylococcus aureus [2]): 1720 ± 20 µM
- Growth MBIC90 (Staphylococcus aureus [2]): 1903 ± 29 µM

Molecule: O=C(/C=C/c1ccc(O)cc1)OC[C@H]1O[C@@H](Oc2c(-c3ccc(O)cc3)oc3cc(O)cc(O)c3c2=O)[C@H](O)[C@@H](O)[C@@H]1O [Tiliroside]
- Biofilm Formation MBIC50 (Staphylococcus aureus [1]): >2000 µM
- Biofilm Formation MBIC90 (Staphylococcus aureus [1]): >2000 µM
- Growth MBIC50 (Staphylococcus aureus [2]): >2000 µM
- Growth MBIC90 (Staphylococcus aureus [2]): >2000 µM

Molecule: O=C(O)c1cc(O)c(O)c(O)c1 [Gallic Acid]
- Biofilm Formation MBIC50 (Staphylococcus aureus [1]): 713 ± 32 µM
- Biofilm Formation MBIC90 (Staphylococcus aureus [1]): 2010 ± 10 µM
- Growth MBIC50 (Staphylococcus aureus [2]): >2000 µM
- Growth MBIC90 (Staphylococcus aureus [2]): >2000 µM

Molecule: O=c1c(O)c(-c2ccc(O)cc2)oc2cc(O)cc(O)c12 [Kaempferol]
- Biofilm Formation MBIC50 (Staphylococcus aureus [1]): 560 ± 53 µM
- Biofilm Formation MBIC90 (Staphylococcus aureus [1]): 773 ± 6 µM
- Growth MBIC50 (Staphylococcus aureus [2]): 1640 ± 10 µM
- Growth MBIC90 (Staphylococcus aureus [2]): 1787 ± 42 µM

Molecule: O=C(O)[C@H]1OC(Oc2c(-c3ccc(O)c(O)c3)oc3cc(O)cc(O)c3c2=O)[C@H](O)[C@@H](O)[C@@H]1O (stereo partly drawn) [Quercetin-3-O-glucuronide]
- Biofilm Formation MBIC50 (Staphylococcus aureus [1]): >2000 µM
- Biofilm Formation MBIC90 (Staphylococcus aureus [1]): >2000 µM
- Growth MBIC50 (Staphylococcus aureus [2]): >2000 µM
- Growth MBIC90 (Staphylococcus aureus [2]): >2000 µM
